Assay results taken from the supplement of paper PMC4862054.

Experiments:
Details in all cases: incubation time: 72 h
HCC1937 [1] = assay: normalised viability (% of control), CellTiter-Blue; higher = more viable cells (100 = DMSO, 0 = benzethonium chloride kill control)
Procedure: (§1)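 DSRT, CellTiter-Blue viability, 72 h incubation. Signal is normalised to DMSO and benzethonium chloride controls. Value is the normalised response at dose 1.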

MDA-MB-436 [2] = assay: as above
Procedure: as §1

HCC1599 [3] = assay: as above
Procedure: as §1

Hs578T [4] = assay: as above
Procedure: as §1

HCC1937 [5] = assay: drug sensitivity score (DSS), CellTiter-Blue viability (DSS (AUC-based score)); higher = stronger viability inhibition; extreme values may be limits of the assay
Summary of the method: (§2)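 Compound was arrayed in 384-well plates as a 5- or 9-concentration series, and 20 µl of breast cancer cell suspension was seeded on top. After 72 h, each well received 2.5 µl CellTiter-Blue for 2 h at 37 °C before fluorescence reading at 560/590 nm. Per-plate normalisation used 0.1 % DMSO and a positive kill control, and the area under the fitted dose-response curve gave the drug sensitivity score.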

MDA-MB-436 [6] = assay: as above
Summary of the method: as §2

HDQ-P1 [7] = assay: as above
Summary of the method: as §2

CAL-148 [8] = assay: as above
Summary of the method: as §2

MDA-MB-468 = assay: as above
Summary of the method: as §2

SK-BR-3 = assay: as above
Summary of the method: as §2

CAL-120 = assay: as above
Summary of the method: as §2

DU-4475 [9] = assay: as above
Summary of the method: as §2

HCC1599 [10] = assay: as above
Summary of the method: as §2

MFM-223 = assay: as above
Summary of the method: as §2

BT-474 = assay: as above
Summary of the method: as §2

Hs578T [11] = assay: as above
Summary of the method: as §2

HCC1143 = assay: as above
Summary of the method: as §2

BT-549 = assay: as above
Summary of the method: as §2

CAL-85-1 [12] = assay: as above
Summary of the method: as §2

MDA-MB-231 = assay: as above
Summary of the method: as §2

MDA-MB-453 = assay: normalised viability (% of control), CellTiter-Blue; higher = more viable cells (about 100 = DMSO control)
Procedure: (§3)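 DSRT, CellTiter-Blue viability, 72 h incubation. Signal is normalised to DMSO and benzethonium chloride controls. Value is the normalised response at dose 9.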

HDQ-P1 [13] = assay: as above
Procedure: as §3

CAL-148 [14] = assay: as above
Procedure: as §3

DU-4475 [15] = assay: as above
Procedure: as §3

CAL-51 = assay: as above
Procedure: as §3

CAL-85-1 [16] = assay: as above
Procedure: as §3

SMILES | normalised viability (HCC1937 [1]; 1 nM) [%] | normalised viability (MDA-MB-436 [2]; 1 nM) [%] | normalised viability (HCC1599 [3]; 1 nM) [%] | normalised viability (Hs578T [4]; 1 nM) [%] | drug sensitivity score (HCC1937 [5]) | drug sensitivity score (MDA-MB-436 [6]) | drug sensitivity score (HDQ-P1 [7]) | drug sensitivity score (CAL-148 [8]) | drug sensitivity score (MDA-MB-468) | drug sensitivity score (SK-BR-3) | drug sensitivity score (CAL-120) | drug sensitivity score (DU-4475 [9]) | drug sensitivity score (HCC1599 [10]) | drug sensitivity score (MFM-223) | drug sensitivity score (BT-474) | drug sensitivity score (Hs578T [11]) | drug sensitivity score (HCC1143) | drug sensitivity score (BT-549) | drug sensitivity score (CAL-85-1 [12]) | drug sensitivity score (MDA-MB-231) | normalised viability (MDA-MB-453; 10000 nM) [%] | normalised viability (HDQ-P1 [13]; 10000 nM) [%] | normalised viability (CAL-148 [14]; 10000 nM) [%] | normalised viability (DU-4475 [15]; 10000 nM) [%] | normalised viability (CAL-51; 10000 nM) [%] | normalised viability (CAL-85-1 [16]; 10000 nM) [%] | normalised viability (HCC1937 [1]; 0.1 nM) [%] | normalised viability (MDA-MB-436 [2]; 0.1 nM) [%] | normalised viability (HCC1599 [3]; 0.1 nM) [%] | normalised viability (Hs578T [4]; 0.1 nM) [%] | normalised viability (MDA-MB-453; 1000 nM) [%] | normalised viability (HDQ-P1 [13]; 1000 nM) [%] | normalised viability (CAL-148 [14]; 1000 nM) [%] | normalised viability (DU-4475 [15]; 1000 nM) [%] | normalised viability (CAL-51; 1000 nM) [%] | normalised viability (CAL-85-1 [16]; 1000 nM) [%]
Nc1ccccc1NC(=O)c1ccc(CNC(=O)OCc2cccnc2)cc1 [Entinostat] | 80.4 | 124 | 102 | 118 | 4.61 | 0 | 0 | 5.16 | 7.4 | 12.4 | 8.06 | 2.81 | 4.98 | 5.32 | 3.64 | 2.77 | 2.98 | 0 | 5.41 | 4.99 | 11.2 | 71.2 | 9.38 | 0.48 | 29.6 | 20.7 |  |  |  |  |  |  |  |  |  | 
O=C(/C=C/c1cccnc1)NCCCCC1CCN(C(=O)c2ccccc2)CC1 [FK-866] |  |  |  |  | 7.6 | 22.3 | 9.7 | 9.58 | 30.1 | 0 | 19.4 | 19.8 | 18.7 | 23.9 | 9.11 | 25.5 | 22.2 | 23.9 | 9.18 | 15.6 |  |  |  |  |  |  | 107 | 107 | 105 | 105 | 19.9 | 58.5 | 44.2 | 3.53 | 34 | 49.2
Nc1nc(F)nc2c1ncn2[C@@H]1O[C@H](CO)[C@@H](O)[C@@H]1O [Fludarabine] | 105 | 90.5 | 92.6 | 109 | 4.57 | 0 | 0 | 0 | 0 | 1.12 | 0 | 0 | 0 | 0 | 0 | 0 | 0 | 0.397 | 0 | 0 | 93.6 | 80.1 | 64.9 | 99.3 | 101 | 78.1 |  |  |  |  |  |  |  |  |  | 
O=C(Cc1ccc(-c2ccc(OCCN3CCOCC3)cc2)cn1)NCc1ccccc1 [KX2-391] | 93.7 | 89 | 85.8 | 130 | 24.2 | 14.6 | 16 | 22.6 | 16.6 | 25 | 23.4 | 25.9 | 7.95 | 17.9 | 11.2 | 25.9 | 23.1 | 24.1 | 19.6 | 24.2 | 38.1 | 47.6 | 34.2 | 15.5 | 12.5 | 45.4 |  |  |  |  |  |  |  |  |  | 
N#Cc1ccc(C(c2ccc(C#N)cc2)n2cncn2)cc1 [Letrozole] | 97.8 | 114 | 103 | 94.5 | 1.74 | 0 | 0 | 0 | 0 | 0 | 0 | 0 | 3.7 | 0 | 0 | 0 | 0 | 0 | 0 | 0 | 51.8 | 93 | 92.4 | 82.9 | 96.3 | 70.3 |  |  |  |  |  |  |  |  |  | 
C[C@H]1C[C@@H]2[C@H]([C@@H](O)C[C@@]3(C)[C@H]2CC[C@]3(O)C(=O)CO)[C@@]2(C)C=CC(=O)C=C12 [Methylprednisolone] | 83.7 | 108 | 114 | 122 | 0 | 0 | 0 | 0 | 0 | 0 | 0 | 0 | 0 | 0 | 0 | 0 | 0 | 3.25 | 0 | 0 | 75.7 | 123 | 106 | 87.4 | 92.5 | 91 |  |  |  |  |  |  |  |  |  | 
O=C(O)C(=O)O.[NH-][C@@H]1CCCC[C@H]1[NH-].[Pt+2] [Oxaliplatin] | 84 | 106 | 93 | 96.7 | 3.82 | 2.6 | 0 | 2.79 | 2.32 | 0.975 | 0 | 1.32 | 2.34 | 0 | 0 | 0 | 1.68 | 4 | 0 | 0 | 28.5 | 60.2 | 18.1 | 41.8 | 39 | 66.5 |  |  |  |  |  |  |  |  |  | 
Nc1nc2[nH]cc(CCc3ccc(C(=O)N[C@@H](CCC(=O)O)C(=O)O)cc3)c2c(=O)[nH]1 [Pemetrexed] | 84.5 | 104 | 92.6 | 114 | 0 | 0 | 0 | 0 | 0 | 9.22 | 1.61 | 0 | 0 | 0 | 0 | 0 | 3.58 | 0 | 5.19 | 0 | 92.6 | 106 | 66.5 | 99.7 | 91 | 55.4 |  |  |  |  |  |  |  |  |  | 
COc1cc([C@@H]2c3cc4c(cc3[C@@H](O[C@@H]3O[C@@H]5CO[C@@H](c6cccs6)O[C@H]5[C@H](O)[C@H]3O)[C@H]3COC(=O)[C@H]23)OCO4)cc(OC)c1O [Teniposide] | 94 | 110 | 98.3 | 127 | 19.7 | 10.3 | 4.07 | 18.5 | 10.9 | 21.4 | 11.2 | 28 | 8.13 | 7.43 | 1.44 | 4.64 | 11.7 | 9.11 | 8.14 | 7.47 | 30.6 | 53.2 | 0.81 | -1.93 | 3.14 | 26.4 |  |  |  |  |  |  |  |  |  | 
COc1cc2nccc(Oc3ccc(NC(=O)Nc4cc(C)on4)c(Cl)c3)c2cc1OC [Tivozanib] | 92.5 | 102 | 115 | 103 | 0 | 0 | 5.92 | 0 | 0 | 1.12 | 2.1 | 0 | 0.494 | 10.4 | 2.36 | 2.98 | 0 | 2.11 | 0 | 3.77 | 28.3 | 55.9 | 96.8 | 107 | 40.7 | 82.9 |  |  |  |  |  |  |  |  |  | 
CC1=C(/C=C/C(C)=C/C=C/C(C)=C/C(=O)O)C(C)(C)CCC1 [Tretinoin] | 117 | 90.4 | 99.3 | 116 | 0 | 0 | 0 | 4.65 | 0 | 7.44 | 0 | 0 | 3.35 | 0 | 0 | 0 | 0 | 0 | 0 | 0 | 96.9 | 122 | 78.3 | 94.3 | 98 | 90.6 |  |  |  |  |  |  |  |  |  | 
C1CN1c1nc(N2CC2)nc(N2CC2)n1 [Triethylenemelamine] | 86.6 | 98.5 | 76.4 | 108 | 0 | 0 | 0 | 0.801 | 0 | 0 | 0 | 0 | 0 | 0 | 0 | 0 | 0 | 1.53 | 0 | 2.85 | 40.9 | 101 | 80 | 95.9 | 60.5 | 72.8 |  |  |  |  |  |  |  |  |  | 
Oc1ncc(N(CCCl)CCCl)c(O)n1 [Uracil mustard] | 101 | 96.3 | 94.5 | 109 | 3.7 | 0 | 0 | 0 | 0 | 0 | 0 | 0 | 0 | 0 | 0 | 0 | 0 | 0 | 0 | 0 | 104 | 110 | 105 | 94.9 | 91.6 | 93.9 |  |  |  |  |  |  |  |  |  | 
